We go through 13 compounds from patent US20100216749A1, “Combination Therapy for Neuroprotection” (S.H. PHARMA., LTD, priority 2007, published 2010).

For assay [1], the system named is middle cerebral artery occlusion (MCAO) stroke animal model. The assay can be described thus: Cerebral infarction volume by TTC staining of brain sections after 1 h MCAO/reperfusion. The assay is classed as in vivo, rat. The settings on record: for concentration at which the size of cerebral infarction was inhibited most effectively: i.v. 1, 2, 5, 10 and 20 mg/kg; for cerebral infarction inhibited by: 4 hours after reperfusion (FIG. 11).

Assay [2] shares this test system. The assay can be described thus: Evaluation of neurologic deficit (static reflex test and forelimb placing test) after MCAO/reperfusion. Format: in vivo, rat. The settings on record: for neuronal damage / motor skill deficit improved: administered 6 hours after MCAO/reperfusion, Example 1 (FIG. 10). The method, then:
Forelimb placing was evaluated by the method described (0: immediate and complete placing, 1: incomplete and/or delayed placing, 2: no placing) (De Ryck M. et al., Stroke 20; 1388-1390). Points of static reflex and forelimb placing of each animal were summed.

The test system is the same in assay [3]. The assay can be described thus: Rota-rod test (motor skill) after MCAO/reperfusion. The settings on record: i.v. 5 mg/kg; for motor skill recovered to, by normal motor skill: 6 hours after MCAO/reperfusion (FIG. 9). (In general: The rotarod test checks motor coordination on a turning rod.)
Protocol: Motor skill of a rat damaged by MCAO was investigated by measuring retention time on Rota-rod (Rota-rod test).
Retention time of each rat on Rota-rod at 5 rpm was measured for 24 hours after MCAO for 1 hour. Next, each rat was also forced to stay on Rota-rod operating at the speeds of 10 rpm and 15 rpm and retention time of each rat was measured at one hour interval. […] The points herein were obtained from repeated experiments, which were performed at 1 hour interval at the speeds of 10 rpm and 15 rpm.
In another assay the test system is stroke animal model. The settings on record: cited from earlier work.
Where [4] appears, read: i.v. 2.5 mg/kg each drug, 6 hours after reperfusion (Examples 9-12).
Setting [5] is: i.v. 5 mg/kg each drug, 6 hours after reperfusion (Examples 3-8).
The mark [6] stands for this setting: 6 hours after reperfusion (FIG. 23).
Where [7] appears, read: i.v. 2.5 mg/kg each drug, 6 hours after reperfusion (Examples 9-12), 2.5 mg/kg.
Setting [8] is: administered 4 hours after neuronal damage, Example 2 (FIG. 13).
Where [9] appears, read: administered 6 hours after neuronal damage (Examples 4-7).

Several values for one entry are separate records, joined by “and”; a condition that tells them apart may be missing. Equal values may be shown once.

For `CC(=O)Oc1cc(C(F)(F)F)ccc1C(=O)O` [2-acetoxy-4-(trifluoromethyl)benzoic acid], the “volume of cerebral infarction reduced by” value in assay [1] (setting [4]) was determined as 23%.

For the compound `O=C(O)c1ccc(C(F)(F)F)cc1O` [2-hydroxy-4-trifluoromethylbenzoic acid], the “volume of cerebral infarction reduced by” value in assay [1] (setting [4]) is on record as 30%.

As to `CC(=O)Oc1ccccc1C(=O)O` [acetylsalicylic acid], the “neuronal damage / motor skill deficit improved” value in assay [2] is “very weak”. In addition, in assay [3], the “motor skill recovered to, by normal motor skill” value was 30%.

Turning to `CNCCC(Oc1ccc(C(F)(F)F)cc1)c1ccccc1` (centres unmarked) [fluoxetine chloride, N-methyl-[4-(trifluoromethyl)phenoxy]benzenepropaneamine], the “volume of cerebral infarction reduced by” value in assay [1] (setting [5]) is listed as 59%. The “concentration at which the size of cerebral infarction was inhibited most effectively” value in assay [1] (setting [6]) is reported as 5 mg/kg.

Consider `CCNC(=O)C(C)=O` [pyruvoylaminoethane], for which the “volume of cerebral infarction reduced by” value in assay [1] (setting [7]) was 20% and 25%.

Regarding “chloro-2-hydroxy-5-(2,3,5,6-tetrafluoro-4-(trifluoromethyl)benzylamino)benzoate”, the “neuronal damage improved / neurologic deficit recovered” value in assay [2] (setting [8]) is given as “very weak”. Besides, the “cerebral infarction inhibited by” value in assay [1] (i.v. 5 mg/kg each drug) was found to be 30%.

As to “chloro-2-hydroxy-5-(2-(2,4,5-trichlorophenoxy)ethylamino)benzoic acid”, the “neuronal damage improved / neurologic deficit recovered” value in assay [2] (setting [9]) is “very weak”. In assay [1] (setting [5]), the “volume of cerebral infarction reduced by” value is on record as 64%.

Take “chloro-2-hydroxy-5-(2-(4-methoxyphenoxy)ethylamino)benzoic acid”: in assay [2] (setting [9]), the “neuronal damage improved / neurologic deficit recovered” value is on record as “very weak”. Besides, in assay [1] (setting [5]), the “volume of cerebral infarction reduced by” value was 53%.

As for “chloro-2-hydroxy-5-(4-(trifluoromethyl)phenylethylamino)benzoate”, the “volume of cerebral infarction reduced by” value in assay [1] (setting [5]) came out at 58%.

Take “chloro-5-(2-(2,4-dichlorophenoxy)ethylamino)-2-hydroxybenzoic acid”: in assay [2] (setting [9]), the “neuronal damage improved / neurologic deficit recovered” value was “very weak”. Besides, in assay [1] (setting [5]), the “volume of cerebral infarction reduced by” value was determined as 61%.

As for “chloro-5-(2-(4-chlorophenoxy)ethylamino)-2-hydroxybenzoic acid”, in assay [2] (setting [9]), the “neuronal damage improved / neurologic deficit recovered” value is “very weak”. Further, the “volume of cerebral infarction reduced by” value in assay [1] (setting [5]) is recorded as 55%.

On to ethyl pyruvate (pyruvoyloxyethane) [EP], for which the “neuronal damage improved / neurologic deficit recovered” value in assay [2] (setting [8]) and in assay [2] (setting [9]) was 40% throughout. In addition, the “neuronal damage / motor skill deficit improved” value in assay [2] was found to be 60%. In assay [2] (two days after MCAO/reperfusion (FIG. 5)), the “neurologic deficit after MCAO/reperfusion” value was “suppress neurologic deficit”. The “infarcted regions (TTC staining) compared with the control group” value in assay [1] (5 mg/kg, 6 hours after reperfusion (FIG. 1)) is given as “significantly decreased”. The “volume of ischemia region” value in assay [1] (i.v. 1 mg/kg, 6 hours after reperfusion, 1 h MCAO (FIG. 2)) is “not changed”. In addition, the “cerebral infarction inhibited by” value in assay [1] (i.v. 5 mg/kg each drug) is 48%. Besides, in assay [1] (setting [5]), the “volume of cerebral infarction reduced by” value was found to be 66%. In addition, the “infarction volume reduced to” value is 17.5% in assay [1] (i.v. 5 mg/kg, 30 minutes after reperfusion (FIG. 3)); 9.0% in assay [1] (i.v. 5 mg/kg, 30 minutes before reperfusion (FIG. 3)); 34.0% in assay [1] (i.v. 5 mg/kg, 6 hours after reperfusion (FIG. 3)); 58.7% in assay [1] (i.v. 5 mg/kg, 9 hours after reperfusion (FIG. 3)); 58.0% in assay [1] (i.v. 5 mg/kg, 12 hours after reperfusion (FIG. 3)). For the same compound, the “volume of ischemia region reduced to, by the control animal” value in assay [1] (i.v. 5 mg/kg, 6 hours after reperfusion, 1 h MCAO (FIG. 2)) stood at 33.6%; in assay [1] (i.v. 10 mg/kg, 6 hours after reperfusion, 1 h MCAO (FIG. 2)) it was 41.7%; in assay [1] (i.v. 20 mg/kg, 6 hours after reperfusion, 1 h MCAO (FIG. 2)), 61.6%. For the same compound, the “infarction inhibiting effect when concentration increased” value in assay [1] (i.v. 10 mg/kg each versus 5 mg/kg, 6 hours after reperfusion (FIG. 23)) is given as “the effect was not increased”. Moreover, the “concentration at which the size of cerebral infarction was inhibited most effectively” value in assay [1] (setting [6]) was 5 mg/kg. In assay [3] (6 hours after MCAO/reperfusion (FIG. 4)), the “period spent on Rota-rod” value is “significantly longer period on Rota-rod”. Besides, the “motor skill recovered to, by normal motor skill” value in assay [3] stood at 70%. Further, in the assay on stroke animal model (administered 24 hours after ischemia-reperfusion), the “size of infarction reduced” value is recorded as “approximately 20%”. For the same compound, the “size of infarction reduced to” value in the assay with stroke animal model (administered into the abdominal cavity 12 hours after ischemia-reperfusion) is “less than 50%”.

Turning to pyruvoylamininediethane, the “volume of cerebral infarction reduced by” value in assay [1] (setting [7]) was 40% and 31%.
